# Measurements reported in PMC11134331, “Cell-active small molecule inhibitors validate the SNM1A DNA repair nuclease as a cancer target” (Chemical Science, 2024).
# Columns and labels:
# SNM1C = target: T1, SNM1C (Homo sapiens, UniProt Q96SD1); test: gel-based nuclease assay, SNM1C; format: biochemical; settings: 2.5 nM SNM1C
# T1 construct: for the MBL and β-CASP domains of SNM1C (aa 1–362) into the baculovirus expression vector pBF-6HZB; made in house; host or cells: Sf9 insect cells (baculovirus)
# From the text: To validate the inhibition of SNM1A, SNM1B, and SNM1C observed in the fluorescence-based screening assays, we then performed gel-based assays using 3′ terminally-labelled oligonucleotide substrates that enable both quantitative and qualitative (visual) assessment of the pattern of inhibition, for a subset of compounds. Importantly, whereas the fluorescence-based assay measures a single hydrolytic event at the substrate terminus, the gel-based nuclease assay informs on the pattern of digestion of the entire 51-mer substrate DNA over time.
# Standard exonuclease assays were carried out in a 10 μL final volume containing 20 mM HEPES-KOH, pH 7.5, 50 mM KCl, 0.5 mM TCEP, 10 mM MgCl2, 0.05% (v/v) Triton X-100, 5% (v/v) glycerol, and SNM1 proteins as indicated. Inhibitors were dissolved in DMSO and diluted immediately prior to the reaction in the above buffer. Inhibitors were serially diluted two-fold from 100 μM. The DMSO concentration was kept constant at 0.1% (v/v) in the final reaction mixture. Inhibitors were incubated with the indicated SNM1 enzyme for 10 minutes at room temperature; reactions were initiated by addition of 10 nM DNA substrate and incubated at 37 °C for 20 min. Reactions were quenched by addition of 5 μL stop solution (95% formamide, 10 mM EDTA, 0.25% (v/v) xylene cyanol, 0.25% (v/v) bromophenol blue) and heated at 95 °C for 3 min. Reactions were analysed by 20% denaturing polyacrylamide gel electrophoresis solution of 19 : 1 acrylamide:bis-acrylamide, BioRad and 7 M urea (Sigma Aldrich) in 1 × TBE (Tris-borate EDTA) buffer. Electrophoresis was carried out at 525 V for 75 minutes; gels were subsequently fixed for 60 minutes in a 50% (v/v) methanol, 10% (v/v) acetic acid solution, and dried at 80 °C for two hours under vacuum. Dried gels were exposed to a Kodak Phosphor imager screen and scanned using a Typhoon 9500 instrument (GE Healthcare), scanned images were quantified using ImageJ.
# Suppl. Figure 10. […] Products were analysed by 20% denaturing PAGE. […]
# SNM1A = target: T2, SNM1A (Homo sapiens, UniProt Q6PJP8); test: real-time fluorescence-based nuclease assay, SNM1A; format: biochemical; set-up: DNA encoding for the MBL and β-CASP domains of SNM1A (aa 676–1040) was cloned into the baculovirus transfer vector pFB-LIC-Bse; inferred from vector pFB-LIC-Bse and the IMAC purification; made in house; host or cells: Sf9 insect cells (baculovirus); settings: SNM1A IC50, real-time fluorescence-based nuclease assay; resynthesised compounds
# T2 sequence (Q6PJP8 676-1040): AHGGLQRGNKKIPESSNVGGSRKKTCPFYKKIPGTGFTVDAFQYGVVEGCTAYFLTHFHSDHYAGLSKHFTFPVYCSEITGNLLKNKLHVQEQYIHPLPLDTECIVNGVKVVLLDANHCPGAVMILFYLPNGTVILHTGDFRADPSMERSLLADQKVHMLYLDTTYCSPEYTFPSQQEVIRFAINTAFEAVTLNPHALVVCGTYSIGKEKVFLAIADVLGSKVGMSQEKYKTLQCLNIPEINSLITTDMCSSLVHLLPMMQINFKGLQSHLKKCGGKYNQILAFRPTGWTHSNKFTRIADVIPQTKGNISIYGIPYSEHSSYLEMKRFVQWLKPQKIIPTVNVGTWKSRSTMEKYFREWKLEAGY
# Method: In brief, the fluorescence-based nuclease assay utilises a chemically modified 20-nucleotide ssDNA substrate with a fluorescein isothiocyanate (FITC) derived 5′-group and an internal black-hole-quencher-1 (BHQ-1), located eight nucleotides distal to the fluorescein group. In the intact substrate the BHQ-1 suppresses fluorescence, however, exonucleolytic digestion of the substrate from the 5′ end by SNM1A uncouples the BHQ-1 and FITC moieties (see Fig. 1D). Spectra were measured every 140 seconds with an increase in fluorescence indicating enzymatic activity by SNM1A (concentration: 0.1 nM).
# Fluorescence-based nuclease digestion SNM1A–C assays were performed as described.[30,45] In the case of SNM1A and SNM1B, a 20-mer oligonucleotide with a 5′ FITC-conjugated-T and an internal BHQ-1 (black hole quencher) conjugated-T, eight nucleotides distal (3′) to the fluor was utilised; whereas for SNM1C a 20-mer oligonucleotide with a 5′ FITC-conjugated-T and a 3′ BHQ-1(black hole quencher) was used to capture all possible endonucleolytic incisions. Reactions (25 μL) were performed in 384 well microplates in nuclease buffer (20 mM HEPES-KOH pH 7.5, 50 mM KCl, 10 mM MgCl2, 0.5 mM TCEP, 0.05% (v/v) Triton-X, 0.1 mg mL^−1 BSA, 5% (v/v) glycerol) with SNM1A/B/C (0.1 nM SNM1A, 0.5 nM SNM1B and 1 nM SNM1C) as indicated. Proteins were incubated for 10 min at RT with the stated compound where applicable, before the reaction was initiated with the addition of 10 nM DNA substrate. […] Fluorescence spectra were measured every 140 s, for 35 min, at 37 °C. The fluorescence intensity of each well was plotted against compound concentration and fitted using a log (inhibitor) response curve using GraphPad Prism software (GraphPad Software, Inc., La Jolla, CA, USA).
# [1] = tested on: SNM1A- cells generated in U2OS background; test: clonogenic survival assay, SNM1A- U2OS cells; format: cell-based, human; settings: 50 μM compound
# Method: Clonogenic assays were performed in 10 cm tissue culture dishes (for RPE-1 cells, U2OS cells and derived clones). Cells (1000 per dish) were seeded in complete media (10 mL) and allowed to attach overnight, then treated with cisplatin or cisplatin plus inhibitor for the times stated. Following treatments, cells were allowed to grow and form colonies for 10 days. Colonies formed were stained with Coomassie R250 (Sigma) and counted on a COLCount Colony Counter (Oxford Optronix). All experiments represent the mean (±SEM) of at least three biological repeats of duplicate dishes/flasks for each treatment.
# T1 sequence (Q96SD1 1-362): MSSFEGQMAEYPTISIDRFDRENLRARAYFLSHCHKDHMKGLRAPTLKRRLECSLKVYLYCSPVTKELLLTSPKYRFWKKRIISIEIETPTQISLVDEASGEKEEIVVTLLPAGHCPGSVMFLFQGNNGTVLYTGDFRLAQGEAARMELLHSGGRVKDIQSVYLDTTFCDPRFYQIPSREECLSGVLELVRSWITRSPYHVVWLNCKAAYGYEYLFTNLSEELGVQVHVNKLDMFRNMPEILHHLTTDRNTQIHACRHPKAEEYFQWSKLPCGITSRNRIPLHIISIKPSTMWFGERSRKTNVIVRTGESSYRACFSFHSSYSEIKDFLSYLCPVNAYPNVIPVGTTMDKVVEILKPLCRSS
compound,measurement,setting,value
C[C@H](Nc1nc(NCc2ccco2)nc2ccc(Cl)cc12)C(=O)NO [compound 19],inhibition of SNM1C in gel-based assay,SNM1C,inhibits each of SNM1A–C
same,IC50,SNM1A,44 µM
same,effect on cisplatin sensitivity,[1],similarly sensitive to cisplatin treatment in the presence or absence of 19
